The results in this text go back to US8609650B2, “Bridged bicyclic aryl and bridged bicyclic heteroaryl substituted triazoles useful as Axl inhibitors” (Rigel Pharmaceuticals, Inc., priority 2006, dated 2013).

The term IC50 denotes the concentration needed to halve the response being measured.

The structures appear in SMILES notation.

The experiment addresses T1, Axl (Homo sapiens, UniProt P30530).
T1 construct: endogenous in cells; host or cells: HeLa cells
T1 sequence (P30530 26-894): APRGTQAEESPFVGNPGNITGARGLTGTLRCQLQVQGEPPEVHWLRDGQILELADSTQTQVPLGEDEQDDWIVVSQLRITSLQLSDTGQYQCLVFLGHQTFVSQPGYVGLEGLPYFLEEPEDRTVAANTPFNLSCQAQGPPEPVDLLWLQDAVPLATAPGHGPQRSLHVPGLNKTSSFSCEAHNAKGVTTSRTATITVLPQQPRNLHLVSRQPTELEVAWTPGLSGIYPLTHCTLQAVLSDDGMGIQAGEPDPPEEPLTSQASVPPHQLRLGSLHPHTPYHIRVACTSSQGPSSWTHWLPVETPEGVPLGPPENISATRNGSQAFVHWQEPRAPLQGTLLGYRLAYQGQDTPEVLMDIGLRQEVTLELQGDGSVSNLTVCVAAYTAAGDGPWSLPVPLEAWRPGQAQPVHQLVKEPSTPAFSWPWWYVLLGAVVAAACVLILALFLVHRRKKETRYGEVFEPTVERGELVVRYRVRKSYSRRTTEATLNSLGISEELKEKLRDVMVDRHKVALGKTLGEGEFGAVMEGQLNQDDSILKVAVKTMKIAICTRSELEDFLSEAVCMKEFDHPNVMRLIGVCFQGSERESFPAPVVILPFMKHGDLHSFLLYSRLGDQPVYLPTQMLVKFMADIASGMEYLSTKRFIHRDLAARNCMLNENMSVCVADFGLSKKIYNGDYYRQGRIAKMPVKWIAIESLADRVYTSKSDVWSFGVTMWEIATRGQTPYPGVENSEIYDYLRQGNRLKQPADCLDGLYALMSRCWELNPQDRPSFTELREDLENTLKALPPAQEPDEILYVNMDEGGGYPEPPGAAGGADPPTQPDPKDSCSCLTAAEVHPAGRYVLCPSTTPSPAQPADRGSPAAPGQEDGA
Briefly: Phospho-Akt In-Cell Western Assay (ability to inhibit Axl activity). The format is cell-based. The settings on record: Hela cells, stimulated by Axl-antibody cross-linking, phospho-Akt chemiluminescence normalized to relative cell number. Summed up:
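HeLa cells starved 24 h in 0.5% FCS with Axl/Fc 500 ng/mL, pre-treated 1 h at 37° C with compound, then stimulated 5 min by anti-Axl antibody cross-linking. Fixed cells probed for phospho-Akt with HRP secondary; chemiluminescence read.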
On to `CN1CCN(c2ccc(Nc3nc(N)n(-c4cc(-c5ccccc5)c5c(n4)C4CCC5C4)n3)cc2)CC1` (stereo not drawn) [Compound 45, 1-(5,8-methano-4-phenyl-5,6,7,8-tetrahydroquinoline-2-yl)-N^3-(4-(4-methylpiperazin-1-yl)phenyl)-1H-1,2,4-triazole-3,5-diamine], for which the IC50 was less than 1 µM.
Then `CN1CCN(C2CCN(c3ccc(Nc4nc(N)n(-c5cc(-c6cccs6)c6c(n5)C5CCC6C5)n4)cc3F)CC2)CC1` (stereo not drawn) [Compound 47, 1-(5,8-methano-4-thiophen-2-yl-5,6,7,8-tetrahydroquinoline-2-yl)-N^3-(3-fluoro-4-(4-(4-methylpiperazin-1-yl)piperidin-1-yl)phenyl)-1H-1,2,4-triazole-3,5-diamine], with less than 1 µM; and `Nc1nc(Nc2ccc3c(c2)CCC(N2CCCC2)CC3)nn1-c1cc(-c2cccs2)c2c(n1)C1CCC2C1` (stereo not drawn) [Compound 48, 1-(5,8-methano-4-thiophen-2-yl-5,6,7,8-tetrahydroquinoline-2-yl)-N^3-(7-pyrrolidin-1-yl-6,7,8,9-tetrahydro-5H-benzo[7]annulene-3-yl)-1H-1,2,4-triazole-3,5-diamine], with less than 1 µM; and `Nc1nc(Nc2ccc3c(c2)CCC(N2CCCC2)CC3)nn1-c1cc(-c2ccccc2)c2c(n1)C1CCC2C1` (stereo not drawn) [Compound 49, 1-(5,8-methano-4-phenyl-5,6,7,8-tetrahydroquinoline-2-yl)-N^3-(7-pyrrolidin-1-yl-6,7,8,9-tetrahydro-5H-benzo[7]annulene-3-yl)-1H-1,2,4-triazole-3,5-diamine], with less than 1 µM.
Then `Cc1cc(Nc2nc(N)n(-c3cc(-c4ccccc4)c4c(n3)C3CCN4CC3)n2)cnc1N1CCN(CC2CC2)CC1` [Compound 50, 1-(1,4-ethano-8-phenyl-1,2,3,4-tetrahydro-1,5-naphthyridin-6-yl)-N^3-(3-methyl-2-(4-cyclopropylmethylpiperazin-1-yl)pyridine-5-yl)-1H-1,2,4-triazole-3,5-diamine], with less than 1 µM; and `Cc1cc(Nc2nc(N)n(-c3cc(-c4ccccc4)c4c(n3)C3CCC4C3)n2)cnc1N1CCN(CC2CC2)CC1` (stereo not drawn) [Compound 51, 1-(5,8-methano-4-phenyl-5,6,7,8-tetrahydroquinoline-2-yl)-N^3-(3-methyl-2-(4-cyclopropylmethylpiperazin-1-yl)pyridine-5-yl)-1H-1,2,4-triazole-3,5-diamine], with 1 to 10 µM; and `Cc1cc(Nc2nc(N)n(-c3cc(-c4cccs4)c4c(n3)C3CCC4C3)n2)cnc1N1CCN(CC2CC2)CC1` (stereo not drawn) [Compound 52, 1-(5,8-methano-4-thiophen-2-yl-5,6,7,8-tetrahydroquinoline-2-yl)-N^3-(3-methyl-2-(4-cyclopropylmethylpiperazin-1-yl)pyridine-5-yl)-1H-1,2,4-triazole-3,5-diamine], with less than 1 µM.
`Nc1nc(Nc2ccc(N3CCC(N4CCCC4)CC3)c(F)c2)nn1-c1cc(-c2cccs2)c2c(n1)C1CCC2C1` (stereo not drawn) [Compound 53, 1-(5,8-methano-4-thiophen-2-yl-5,6,7,8-tetrahydroquinoline-2-yl)-N^3-(3-fluoro-4-(4-(pyrrolidin-1-yl)piperidin-1-yl)phenyl)-1H-1,2,4-triazole-3,5-diamine] registered an IC50 of less than 1 µM.
In the case of `CN(C)C1CCN(c2ccc(Nc3nc(N)n(-c4cc(-c5cccs5)c5c(n4)C4CCC5C4)n3)cc2F)CC1` (stereo not drawn) [Compound 54, 1-(5,8-methano-4-thiophen-2-yl-5,6,7,8-tetrahydroquinoline-2-yl)-N^3-(3-fluoro-4-(4-dimethylaminopiperidin-1-yl)phenyl)-1H-1,2,4-triazole-3,5-diamine] it was less than 1 µM; in that of `CCOC(=O)CN1CCN(c2ccc(Nc3nc(N)n(-c4cc(-c5ccccc5)c5c(n4)C4CCN5CC4)n3)cc2F)CC1` [Compound 55, 1-(1,4-ethano-8-phenyl-1,2,3,4-tetrahydro-1,5-naphthyridin-6-yl)-N^3-(3-fluoro-4-(4-ethyloxycarbonylmethylpiperazin-1-yl)phenyl)-1H-1,2,4-triazole-3,5-diamine], less than 1 µM.
In the case of `Nc1nc(Nc2ccc(N3CCN(CC(=O)O)CC3)c(F)c2)nn1-c1cc(-c2ccccc2)c2c(n1)C1CCN2CC1` [Compound 56, 1-(1,4-ethano-8-phenyl-1,2,3,4-tetrahydro-1,5-naphthyridin-6-yl)-N^3-(3-fluoro-4-(4-carboxymethylpiperazin-1-yl)phenyl)-1H-1,2,4-triazole-3,5-diamine] it was less than 1 µM; in that of `Nc1nc(Nc2ccc(N3CCC(N4CCCC4)CC3)c(F)c2)nn1-c1cc(-c2ccc(C(F)(F)F)cc2)c2c(n1)C1CCN2CC1` [Compound 57, 1-(1,4-ethano-8-(4-trifluoromethylphenyl)-1,2,3,4-tetrahydro-1,5-naphthyridin-6-yl)-N^3-(3-fluoro-4-(4-(pyrrolidin-1-yl)piperidin-1-yl)phenyl)-1H-1,2,4-triazole-3,5-diamine], less than 1 µM.
In the case of `CCOC(=O)C1CCN(C2CCN(c3ccc(Nc4nc(N)n(-c5cc(-c6ccccc6)c6c(n5)C5CCN6CC5)n4)cc3F)CC2)CC1` [Compound 58, (1,4-ethano-8-phenyl-1,2,3,4-tetrahydro-1,5-naphthyridin-6-yl)-N^3-(3-fluoro-4-(4-(4-ethyloxycarbonylpiperidin-1-yl)piperidin-1-yl)phenyl)-1H-1,2,4-triazole-3,5-diamine] it was less than 1 µM.
Turning to `Nc1nc(Nc2ccc(N3CCC(N4CCC(C(=O)O)CC4)CC3)c(F)c2)nn1-c1cc(-c2ccccc2)c2c(n1)C1CCN2CC1` [Compound 59, 1-(1,4-ethano-8-phenyl-1,2,3,4-tetrahydro-1,5-naphthyridin-6-yl)-N^3-(3-fluoro-4-(4-(4-carboxypiperidin-1-yl)piperidin-1-yl)phenyl)-1H-1,2,4-triazole-3,5-diamine], the half-inhibitory concentration (IC50) is less than 1 µM.
`COC(=O)[C@@H]1CCCN1C1CCN(c2ccc(Nc3nc(N)n(-c4cc(-c5ccccc5)c5c(n4)C4CCN5CC4)n3)cc2F)CC1` [Compound 60, 1-(1,4-ethano-8-phenyl-1,2,3,4-tetrahydro-1,5-naphthyridin-6-yl)-N^3-(3-fluoro-4-(4-((2S)-2-methyloxycarbonylpyrrolidin-1-yl)piperidin-1-yl)phenyl)-1H-1,2,4-triazole-3,5-diamine] came in with an IC50 of less than 1 µM.
In the case of `Nc1nc(Nc2ccc(N3CCC(N4CCC[C@H]4C(=O)O)CC3)c(F)c2)nn1-c1cc(-c2ccccc2)c2c(n1)C1CCN2CC1` [Compound 61, 1-(1,4-ethano-8-phenyl-1,2,3,4-tetrahydro-1,5-naphthyridin-6-yl)-N^3-(3-fluoro-4-(4-((2S)-2-carboxypyrrolidin-1-yl)piperidin-1-yl)phenyl)-1H-1,2,4-triazole-3,5-diamine] it was less than 1 µM.
In the case of `COc1ccc(-c2cc(-n3nc(Nc4ccc(N5CCC(N6CCCC6)CC5)c(F)c4)nc3N)nc3c2N2CCC3CC2)cc1` [Compound 62, 1-(1,4-ethano-8-(4-methoxyphenyl)-1,2,3,4-tetrahydro-1,5-naphthyridin-6-yl)-N^3-(3-fluoro-4-(4-(pyrrolidin-1-yl)piperidin-1-yl)phenyl)-1H-1,2,4-triazole-3,5-diamine] it was less than 1 µM.
In the case of `Nc1nc(Nc2ccc(N3CCC(N4CCCC4)CC3)c(F)c2)nn1-c1cc(-c2cccnc2)c2c(n1)C1CCN2CC1` [Compound 63, 1-(1,4-ethano-8-pyridin-3-yl-1,2,3,4-tetrahydro-1,5-naphthyridin-6-yl)-N^3-(3-fluoro-4-(4-(pyrrolidin-1-yl)piperidin-1-yl)phenyl)-1H-1,2,4-triazole-3,5-diamine] it was less than 1 µM; in that of `Nc1nc(Nc2ccc(N3CCC(N4CCCC4)CC3)c(F)c2)nn1-c1cc(-c2ccsc2)c2c(n1)C1CCN2CC1` [Compound 64, 1-(1,4-ethano-8-thiophen-3-yl-1,2,3,4-tetrahydro-1,5-naphthyridin-6-yl)-N^3-(3-fluoro-4-(4-(pyrrolidin-1-yl)piperidin-1-yl)phenyl)-1H-1,2,4-triazole-3,5-diamine], less than 1 µM; in that of `COC(=O)[C@@H]1CN(c2ccc(Nc3nc(N)n(-c4cc(-c5ccccc5)c5c(n4)C4CCN5CC4)n3)cc2F)CCN1CC1CC1` [Compound 65, 1-(1,4-ethano-8-phenyl-1,2,3,4-tetrahydro-1,5-naphthyridin-6-yl)-N^3-(3-fluoro-4-((3S)-3-methyloxycarbonyl-4-cyclopropylmethylpiperazin-1-yl)phenyl)-1H-1,2,4-triazole-3,5-diamine], less than 1 µM.
Turning to `Nc1nc(Nc2ccc(N3CCN(CC4CC4)[C@H](C(=O)O)C3)c(F)c2)nn1-c1cc(-c2ccccc2)c2c(n1)C1CCN2CC1` [Compound 66, 1-(1,4-ethano-8-phenyl-1,2,3,4-tetrahydro-1,5-naphthyridin-6-yl)-N^3-(3-fluoro-4-((3S)-3-carboxy-4-cyclopropylmethylpiperazin-1-yl)phenyl)-1H-1,2,4-triazole-3,5-diamine], the IC50 was less than 1 µM.
